Experimental data as given in PMC6837341, “Evolutionarily conserved susceptibility of the mitochondrial respiratory chain to SDHI pesticides and its consequence on the impact of SDHIs on human cultured cells” (PLoS ONE, 2019).
pIC50: −log10 of the molar value.

Tests used:
[1] = according to European regulations; ref European regulations; cited from earlier work
[2] = target: succinate cytochrome c reductase (SDH+CIII) (Homo sapiens, UniProt O14521+P21912+Q99643); experiment: Malonate-sensitive succinate cytochrome c reductase (SCCR) activity, freeze-thawed HEK cells; format: biochemical; design: the pellets were permeabilized by two freeze-thaw cycles before enzyme assays; endogenous in cells; host or cells: HEK293, freeze-thawed cell pellets; conditions: IC50 SCCR, no exogenous quinone, n ≥ 3
Description: (§1) The cells were grown in T75 flasks using 10 ml Dulbecco’s modified Eagle's minimal essential medium (DMEM) either containing 1 or 4.5 g/l glucose, 4 mM glutamine (glutamax; Gibco Thermo Fisher Scientific, MA), 2 mM pyruvate and 200 μM uridine (permissive medium, thereafter referred as GlucoMax) or lacking glucose, pyruvate and uridine but containing 4 mM glutamine (nonpermissive medium, thereafter referred as MitoMax; S1 Table). All media were supplemented with 10% fetal calf serum and 100 U/mL each penicillin and streptomycin. HEK293 human embryonic kidney cells were cultured in DMEM containing 4.5 g/L glucose, 4 mM glutamine, 10% fetal calf serum, 200 μM uridine, 2 mM pyruvate, and 100 U/mL each penicillin and streptomycin [9]. Cell pellets (1,500 g for 5 min) were kept frozen (-80°C), and for biochemical studies, the pellets were permeabilized by two freeze-thaw cycles before enzyme assays.
(§2) RC enzyme activities were spectrophotometrically measured using a pseudo-double-wavelength spectrophotometer (Cary 60, Agilent). Malonate-sensitive succinate quinone dichlorophenolindophenol (DCPIP) reductase (SQDR), as an indicator of the activity of the isolated SDH enzyme (isolated CII), and glycerol-3-phosphate quinone DCPIP reductase (GQDR), as a measure of the activity of the isolated glycerol-3-phosphate dehydrogenase (G3PDH), were assayed as previously described. To study the effect of SDHIs on the RC, we had to take into consideration the fact that these inhibitors act through binding to quinone-binding sites in the RC. Accordingly, we observed that the extent of the inhibitory effects of these substances varies with the addition of exogenous quinones (Fig 1). […] With this aim, we measured the malonate-sensitive succinate cytochrome c reductase (SDH+CIII), glycerol-3-phosphate cytochrome c reductase (G3PDH+CIII) and antimycin-sensitive quinol cytochrome c reductase (CIII) as previously described.
(§3) The effects of eight different SDHIs (up to 500 μM; S2 Fig) were determined on four different biological materials. Because IC50 are known to be affected by the actual absolute activity of the tested enzyme, these IC50 were quantified using similar levels of SDH enzyme activity during the assay. IC50 values were determined using the AAT Bioquest IC50 calculator tool (https://www.aatbio.com/tools/ic50-calculator).

[3] = target: T1, glycerol-3-phosphate cytochrome c reductase (G3PDH+CIII) (Homo sapiens, UniProt P00156); experiment: Glycerol-3-phosphate cytochrome c reductase (GCCR) activity, freeze-thawed HEK cells; format: biochemical
T1 construct: the pellets were permeabilized by two freeze-thaw cycles before enzyme assays; endogenous in cells; host or cells: HEK293, freeze-thawed cell pellets
Description: as §1, §2, §3

[4] = target: T2, quinol cytochrome c reductase (CIII) (Homo sapiens, UniProt P00156); experiment: Antimycin-sensitive quinol cytochrome c reductase (QCCR) activity, freeze-thawed HEK cells; format: biochemical
T2 construct: the pellets were permeabilized by two freeze-thaw cycles before enzyme assays; endogenous in cells; host or cells: HEK293, freeze-thawed cell pellets
Description: as §1, §2, §3

succinate cytochrome c reductase (SDH+CIII), sequence (P21912 29-280): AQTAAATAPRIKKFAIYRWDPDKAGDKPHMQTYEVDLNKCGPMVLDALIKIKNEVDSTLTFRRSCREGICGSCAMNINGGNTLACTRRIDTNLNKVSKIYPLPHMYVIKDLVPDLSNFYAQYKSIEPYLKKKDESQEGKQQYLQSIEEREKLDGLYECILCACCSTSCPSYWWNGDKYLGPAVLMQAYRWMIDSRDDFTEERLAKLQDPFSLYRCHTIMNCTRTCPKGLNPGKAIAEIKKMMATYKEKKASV
succinate cytochrome c reductase (SDH+CIII), sequence (Q99643 30-169): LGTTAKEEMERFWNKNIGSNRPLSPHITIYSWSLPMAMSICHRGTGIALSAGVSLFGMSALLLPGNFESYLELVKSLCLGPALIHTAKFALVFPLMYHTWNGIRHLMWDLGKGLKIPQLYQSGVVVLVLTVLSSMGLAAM
succinate cytochrome c reductase (SDH+CIII), sequence (O14521 57-159): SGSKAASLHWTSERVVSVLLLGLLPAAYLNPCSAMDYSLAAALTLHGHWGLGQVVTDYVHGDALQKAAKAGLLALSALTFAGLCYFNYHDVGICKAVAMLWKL
succinate cytochrome c reductase (SDH+CIII), sequence (P31040 43-664 partner): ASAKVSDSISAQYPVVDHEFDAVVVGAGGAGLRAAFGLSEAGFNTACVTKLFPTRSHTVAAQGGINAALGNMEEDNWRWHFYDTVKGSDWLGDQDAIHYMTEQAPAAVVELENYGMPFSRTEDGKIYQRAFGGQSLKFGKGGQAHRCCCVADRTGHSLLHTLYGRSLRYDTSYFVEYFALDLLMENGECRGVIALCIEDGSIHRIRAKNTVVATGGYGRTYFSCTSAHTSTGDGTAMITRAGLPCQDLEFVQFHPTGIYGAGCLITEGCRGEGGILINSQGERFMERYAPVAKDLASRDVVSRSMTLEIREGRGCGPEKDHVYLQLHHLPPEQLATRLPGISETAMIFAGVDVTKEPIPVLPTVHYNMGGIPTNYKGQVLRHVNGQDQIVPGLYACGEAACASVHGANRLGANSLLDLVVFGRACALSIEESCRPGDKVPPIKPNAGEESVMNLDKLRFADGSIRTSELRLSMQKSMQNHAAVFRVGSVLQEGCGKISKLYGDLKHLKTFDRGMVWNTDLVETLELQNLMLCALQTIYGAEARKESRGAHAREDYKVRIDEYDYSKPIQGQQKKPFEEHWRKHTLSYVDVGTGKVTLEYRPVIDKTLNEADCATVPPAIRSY

In the case of `O=C(NCCc1ncc(C(F)(F)F)cc1Cl)c1ccccc1C(F)(F)F` [Fluopyram, fluopyram], the “ADI (Acceptable Daily Intake)” value [1] is given as 0.012 mg/kg/day, the pIC50 [2] is given as 3.80 and the pIC50 [3] is given as < 3.30. The pIC50 [4] was < 3.30.
